Reference: patent publication US20240138406A1, “ANTIMICROBIAL PEPTIDE SCYAMPCIN44-63 AND APPLICATION THEREOF” (Xiamen University, priority 2021, published 2024)
No end group written: not given here.

Tested on: Enterobacter cloacae QZ18103
Settings: QZ18103, 24 h

Question: How did the MBC turn out when “GKKKKRNMMKTKEPGIIFFF-NH2 [Scyampcin44-63]” was run?
Answer: 3 to 6 µM
